Measured values reported in ChEMBL document CHEMBL1671659, “In vitro and in vivo properties of dihydrophthalazine antifolates, a novel family of antibacterial drugs” (Antimicrob Agents Chemother, 2009).
≈ marks a conversion by molar mass, not a printed value. Calls of active or inactive are those of the source. No cut-off for these calls is given here.

Assays:
[1] = test system: Staphylococcus epidermidis; assay: Antibacterial activity against methicillin-sensitive dfrC, dfrA-positive and dfrD-negative Staphylococcus epidermidis; type: functional
Staphylococcus aureus [2] = assay: Antibacterial activity against trimethoprim-sensitive Staphylococcus aureus ATCC 29213 infected in NMRI mouse model of septicemia assessed as succumbed to infections at 1.6 mg/kg, iv; type: functional, organism-based; set-up: dose 1.6 mg/kg
Mus musculus [3] = assay: Toxicity in po dosed NMRI mouse; type: organism-based; settings: in vivo
Staphylococcus aureus [4] = assay: Antibacterial activity against methicillin-resistant dfrB, dfrA-positive and dfrA within SCCmec-N1, dfrG-negative Staphylococcus aureus; type: functional
[5] = test system: Staphylococcus epidermidis; assay: Antibacterial activity against methicillin-sensitive dfrA, dfrD-negative Staphylococcus epidermidis harboring F98Y mutation in dfrC gene; type: functional
Staphylococcus aureus [6] = assay: Antibacterial activity against vancomycin, trimethoprim, methicillin-resistant Staphylococcus aureus VRS1 harboring dfrA and dfrB genes; type: functional
[7] = Cmax in NMRI mouse blood at 25 mg/kg administered through oral gavage measured after 7 hrs; type: ADME, organism-based; set-up: dose 25 mg/kg, route oral
Haemophilus influenzae [8] = assay: Antibacterial activity against Haemophilus influenzae in presence of 250 ug/ml thymidine; type: functional
Staphylococcus aureus [9] = assay: Antibacterial activity against methicillin, vancomycin, trimethoprim-sensitive Staphylococcus aureus ATCC 29213 harboring dfrB gene; type: functional
Staphylococcus aureus [10] = assay: Antibacterial activity against methicillin-resistant dfrA within SCCmec-N1, dfrA and dfrG -negative Staphylococcus aureus harboring F98Y mutation in dfrB gene; type: functional
Mus musculus [11] = assay: Hepatotoxicity in NMRI mouse assessed as increase in liver weight at 400 mg/kg administered through oral gavage for 5 days; type: toxicity, organism-based; set-up: dose 400 mg/kg, route oral; settings: in vivo, 120 h
Enterococcus faecium [12] = assay: Antibacterial activity against vancomycin-resistant dfrE, dfrF-negative and folA-positive Enterococcus faecium; type: functional
Enterococcus faecium [13] = assay: Antibacterial activity against vancomycin-resistant dfrE-negative and folA, dfrF-positive Enterococcus faecium; type: functional
Enterococcus faecium [14] = assay: Antibacterial activity against Enterococcus faecium in presence of 250 ug/ml thymidine; type: functional
[15] = test system: Staphylococcus epidermidis; assay: Antibacterial activity against methicillin-sensitive dfrA-positive and dfrD-negative Staphylococcus epidermidis harboring F98Y mutation in dfrC gene; type: functional
Enterococcus faecalis [16] = assay: Antibacterial activity against vancomycin-sensitive dfrE, dfrF-positive and folA-negative Enterococcus faecalis; type: functional
[17] = Tmax in NMRI mouse blood at 25 mg/kg administered through oral gavage measured after 7 hrs; type: ADME, organism-based; set-up: dose 25 mg/kg, route oral
Dihydrofolate reductase = Dihydrofolate reductase (Staphylococcus aureus, UniProt P0A017, F99Y); assay: Inhibition of trimethoprim-resistant Staphylococcus aureus DfrB type dihydrofolate reductase F98Y mutant
[18] = Inhibition of trimethoprim-sensitive Staphylococcus aureus DfrB type dihydrofolate reductase
Staphylococcus aureus [19] = assay: Antibacterial activity against trimethoprim-resistant Staphylococcus aureus BAS003908 infected in NMRI mouse model of septicemia; type: functional
HeLa = assay: Cytotoxicity against human HeLa cells; type: cell-based
[20] = test system: Staphylococcus epidermidis; assay: Antibacterial activity against methicillin-resistant dfrC, dfrA-positive and dfrA within SCCmec-N1, dfrD-negative Staphylococcus epidermidis; type: functional
[21] = Oral bioavailability in NMRI mouse; type: ADME, organism-based; settings: in vivo
Streptococcus pneumoniae [22] = assay: Antibacterial activity against Streptococcus pneumoniae in presence of 250 ug/ml thymidine; type: functional
Haemophilus influenzae [23] = assay: Antibacterial activity against Haemophilus influenzae; type: functional
Staphylococcus aureus [24] = assay: Antibacterial activity against vancomycin, trimethoprim-sensitive and methicillin-resistant Staphylococcus aureus ATCC 43300 harboring dfrB gene; type: functional
Mycobacterium avium [25] = assay: Antibacterial activity against Mycobacterium avium assessed as inhibition of bacterial growth at <=4 ug/ml; type: functional; set-up: scale not given: the % may be the effect or the level left
[26] = test system: Staphylococcus epidermidis; assay: Antibacterial activity against methicillin, vancomycin-sensitive and trimethoprim-resistant Staphylococcus epidermidis BAS000635 harboring dfrC and dfrA genes; type: functional
[27] = AUC (0 to t) in NMRI mouse blood at 25 mg/kg administered through oral gavage after 7 hrs; type: ADME, organism-based; set-up: time < 7 hr, dose 25 mg/kg, route oral
Enterococcus faecalis [28] = assay: Antibacterial activity against vancomycin-sensitive folA, dfrF-negative Enterococcus faecalis harboring A5T, K88N, F102Y mutation in dfrE gene; type: functional
Staphylococcus aureus [29] = assay: Antibacterial activity against trimethoprim-sensitive Staphylococcus aureus ATCC 29213 infected in NMRI mouse model of septicemia assessed as complete protection from infections at 3.1 mg/kg, iv; type: functional, organism-based; set-up: dose 3.1 mg/kg
Enterococcus faecium [30] = assay: Antibacterial activity against vancomycin-sensitive dfrE, dfrF-negative and folA-positive Enterococcus faecium; type: functional
Enterococcus faecalis [31] = assay: Antibacterial activity against Enterococcus faecalis; type: functional
[32] = test system: Staphylococcus epidermidis; assay: Antibacterial activity against methicillin, vancomycin, trimethoprim-sensitive Staphylococcus epidermidis ATCC 14990 harboring dfrC gene; type: functional
Staphylococcus aureus [33] = assay: Antibacterial activity against trimethoprim-resistant Staphylococcus aureus BAS003908; type: functional
Staphylococcus aureus [34] = assay: Antibacterial activity against methicillin-sensitive dfrB-positive abd dfrA, dfrG-negative Staphylococcus aureus; type: functional
Haemophilus influenzae [35] = assay: Antibacterial activity against Haemophilus influenzae in presence of 50 ug/ml thymidine
Staphylococcus aureus [36] = assay: Antibacterial activity against trimethoprim-sensitive Staphylococcus aureus ATCC 29213; type: functional
[37] = test system: Staphylococcus epidermidis; assay: Antibacterial activity against methicillin-sensitive dfrC-positive and dfrA, dfrD-negative Staphylococcus epidermidis; type: functional
Staphylococcus aureus [38] = assay: Antibacterial activity against methicillin-resistant dfrB, dfrG-positive and dfrA-negative Staphylococcus aureus; type: functional
Enterococcus faecalis [39] = assay: Antibacterial activity against Enterococcus faecalis in presence of 50 ug/ml thymidine; type: functional
Enterococcus faecium [40] = assay: Antibacterial activity against Enterococcus faecium in presence of 50 ug/ml thymidine; type: functional
Enterococcus faecalis [41] = assay: Antibacterial activity against Enterococcus faecalis in presence of 250 ug/ml thymidine; type: functional
Streptococcus pneumoniae [42] = assay: Antibacterial activity against Streptococcus pneumoniae
Staphylococcus aureus [43] = assay: Antibacterial activity against trimethoprim-sensitive Staphylococcus aureus ATCC 29213 infected in NMRI mouse model of septicemia; type: functional
Streptococcus pneumoniae [44] = assay: Antibacterial activity against Streptococcus pneumoniae in presence of 50 ug/ml thymidine; type: functional
Enterococcus faecium [45] = assay: Antibacterial activity against Enterococcus faecium; type: functional
Mycobacterium avium [46] = assay: Antibacterial activity against Mycobacterium avium; type: functional

SMILES: COc1cc(Cc2cnc(N)nc2N)cc(/C=C/C(=O)N2N=Cc3ccccc3C2c2cnc(N(C)C)nc2)c1OC (centres undefined)
- MIC [1]: 1 µg/mL (≈ 1.77 µM)
- Activity (Staphylococcus aureus [2]): inactive
- Activity (Mus musculus [3]): 400 mg/kg
- MIC (Staphylococcus aureus [4]): 1 µg/mL (≈ 1.77 µM)
- MIC (Staphylococcus aureus [4]; Staphylococcus aureus, read-out: MIC): 2 µg/mL (≈ 3.54 µM)
- MIC [5]: 1 µg/mL (≈ 1.77 µM)
- MIC (Staphylococcus aureus [6]): 2 µg/mL (≈ 3.54 µM)
- Cmax [7]: 5390 ng/mL
- MIC (Haemophilus influenzae [8]): 32 µg/mL
- MIC (Staphylococcus aureus [9]): 0.5 µg/mL (≈ 0.884 µM)
- MIC (Staphylococcus aureus [10]): 1 µg/mL (≈ 1.77 µM)
- Activity (Mus musculus [11]): < 10%
- MIC (Enterococcus faecium [12]): 2 µg/mL (≈ 3.54 µM)
- MIC (Enterococcus faecium [13]): > 128 µg/mL
- MIC (Enterococcus faecium [14]): ≥ 128 µg/mL
- MIC [15]: 1 µg/mL (≈ 1.77 µM)
- MIC (Enterococcus faecalis [16]): > 128 µg/mL
- Tmax [17]: 2 h
- IC50 (Dihydrofolate reductase): 70.2 nM
- IC50 [18]: 11.3 nM
- ED50 (Staphylococcus aureus [19]): 3.1 mg/kg
- IC50 (HeLa): 12000 nM
- MIC [20]: 0.5 µg/mL (≈ 0.884 µM)
- bioavailability [21]: 26%
- MIC (Streptococcus pneumoniae [22]): ≥ 128 µg/mL
- MIC (Haemophilus influenzae [23]): > 128 µg/mL
- MIC (Staphylococcus aureus [24]): 1 µg/mL (≈ 1.77 µM)
- Activity (Mycobacterium avium [25]): 77%
- MIC [26]: 2 µg/mL (≈ 3.54 µM)
- AUC(0-t) at 7 h [27]: 23400 ng·h/mL
- MIC (Enterococcus faecalis [28]): 0.5 µg/mL (≈ 0.884 µM)
- Activity (Staphylococcus aureus [29]): Active
- MIC (Enterococcus faecium [30]): ≤ 0.25 µg/mL
- MIC (Enterococcus faecalis [31]): 0.5 µg/mL (≈ 0.884 µM)
- MIC [32]: 0.25 µg/mL (≈ 0.442 µM)
- MIC (Staphylococcus aureus [33]): 1 µg/mL (≈ 1.77 µM)
- MIC (Staphylococcus aureus [34]): 1 µg/mL (≈ 1.77 µM)
- MIC (Haemophilus influenzae [35]): ≥ 128 µg/mL
- MIC (Staphylococcus aureus [36]): 1 µg/mL (≈ 1.77 µM)
- MIC [37]: < 0.25 µg/mL
- MIC (Staphylococcus aureus [38]): 64 µg/mL (≈ 113 µM)
- MIC (Enterococcus faecalis [39]): ≤ 0.25 µg/mL
- MIC (Enterococcus faecium [40]): ≥ 128 µg/mL
- MIC (Enterococcus faecalis [41]): 1 µg/mL
- MIC (Streptococcus pneumoniae [42]): ≥ 128 µg/mL
- ED50 (Staphylococcus aureus [43]): 1.6 mg/kg
- MIC (Streptococcus pneumoniae [44]): 32 µg/mL
- MIC (Enterococcus faecium [45]): 2 µg/mL (≈ 3.54 µM)

SMILES: Nc1ccc(S(=O)(=O)c2ccc(N)cc2)cc1 [DAPSONE]
- MIC (Mycobacterium avium [46]): < 16 µg/mL
